Measurements as given in BindingDB's records for doi:10.1016/s0960-894x(00)00166-9 (Universidad Complutense, 2000).

Target: 5-hydroxytryptamine receptor 7 (Rattus norvegicus, UniProt P32305)
Test: Binding affinity towards 5-hydroxytryptamine 7 receptor

Chain of 5-hydroxytryptamine receptor 7 (P32305 whole entry): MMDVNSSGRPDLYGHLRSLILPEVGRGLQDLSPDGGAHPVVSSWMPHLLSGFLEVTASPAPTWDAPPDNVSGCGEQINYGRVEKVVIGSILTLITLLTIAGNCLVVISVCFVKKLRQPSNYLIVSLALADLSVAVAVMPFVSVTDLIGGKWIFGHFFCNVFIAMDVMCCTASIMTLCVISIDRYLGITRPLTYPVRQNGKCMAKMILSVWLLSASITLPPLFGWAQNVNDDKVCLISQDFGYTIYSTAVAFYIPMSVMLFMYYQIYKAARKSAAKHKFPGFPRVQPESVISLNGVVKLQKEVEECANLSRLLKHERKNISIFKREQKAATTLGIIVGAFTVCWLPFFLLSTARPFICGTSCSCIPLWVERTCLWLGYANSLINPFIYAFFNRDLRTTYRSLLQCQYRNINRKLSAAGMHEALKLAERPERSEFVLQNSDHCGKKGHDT

Ki: 63 nM
SMILES: CC(C)(C)[C@]1(O)CCN2C[C@H]3c4ccccc4CCc4cccc(c43)[C@@H]2C1
